The numbers were not newly measured in article PMC11635053, “Development of a homotrimeric PSMA radioligand based on the NOTI chelating platform” (EJNMMI Radiopharmacy and Chemistry, 2024), which cites them from elsewhere.

Where two headings read alike, the source gives them in different places.

Data set [1] has as its system LNCaP xenograft bearing mice. The following applies: 1 h p.i., ref Benešová et al. ([2015]); cited from earlier work.
Another data set concerns patients. Conditions: cited from earlier work; for Injected activity excreted: patients, ref Kurth et al. [2018].

Regarding [^177Lu]Lu-PSMA-617, in data set [1], the Kidney uptake is given as 137.2 ± 77.8 % IA g^−1, the Liver uptake was 0.22 ± 0.08 % IA g^−1, the Tumor uptake is on record as 11.20 ± 4.17 % IA g^−1 and the Tumor-to-kidney ratio is 0.08. Besides, the Tumor-to-liver ratio in data set [1] is listed as 50.91. Moreover, the “Patients that may not respond to therapy” value in the data set on patients (PSMA targeted radioligand therapy, ref Kratochwil et al. [2016]) is listed as “more than 30%”. The Injected activity excreted in the data set with patients (by 12 h) is on record as ~70%. The Injected activity excreted with patients (within 4 h of administration) is recorded as 50%.
